The text below walks through data of patent US20250134853A1, “COMPOUNDS AND METHODS FOR USING GALLOYLATED POLYPHENOLS TO TREAT DISEASES MEDIATED BY THIOL ISOMERASES” (Beth Israel Deaconess Medical Center, Inc., priority 2023, published 2025).

The target in assay [1] is T1, PDI (Homo sapiens, UniProt P07237).
T1 construct: FLAG; made in house; host or cells: Escherichia coli Origami B (DE3)
Put plainly: Di-eosin-GSSG disulfide reductase assay, PDI. Type of assay: biochemical.
Protocol: Di-eosin-GSSG disulfide reductase assay. The probe di-eosin glutathione disulfide, di-eosin-GSSG, was prepared by incubating 100 μM of GSSG with 1 mM of eosin isothiocyanate in 100 mM potassium phosphate containing 2 mM EDTA (pH 7.4), at 25° C. overnight in the dark. The mixture was passed down a PD-10 column and different fractions were collected. A fold change of fluorescence (Ex: 520 nm, Em: 550 nm) was calculated using samples subjected to either vehicle or 20 mM of DTT. Any fraction with a fold change >5 was kept. Using a stock of 10 mM eosin isothiocyanate, a standard curve was generated and concentration of samples were determined accordingly. Di-eosin-GSSG cleavage of purified thiol isomerases and PDI domains was monitored in a 96-well fluorescence plate format. PDI, CGXC-PDI variants, ERp5, ERp57, ERp46 and PDI domains were assayed at 50 nM in the presence or absence of the indicated small molecules. The assay included a thiol isomerase assay buffer (39 mM KH2PO4, 61 mM K2HPO4, 2 mM EDTA, 5 M DTT, pH 7.4) and 150 nM of the di-eosin-GSSG probe. The increase in fluorescence was determined for 60 min by excitation at 520 nm and emission at 550 nm in a Synergy Biotek 4. The reduction of 150 nM di-eosin-GSSG by 5 μM DTT in the presence or absence of mentioned small molecule or proteins served as a negative control.

Assay [2] deals with T1, PDI. Briefly: Maleimide-pegylated biotin (MPB) binding to PDI. Particulars: preincubation with compound. The protocol: PDI was then exposed to MPB in Laemmli Sample buffer for 10 minutes. Samples were subsequently analyzed for MPB labeling with […] after SDS-PAGE and immunoblotting.
Maleimide-pegylated Biotin (MPB) binding. MPB-binding experiments were performed in a reaction volume of 37.5 μL of polyphenols with 5 μM of thiol isomerase in phosphate buffered saline (PBS). The reaction mixture was incubated at 37° C. for 1 h. Subsequently, the reaction mixtures were incubated with 25 μM of MPB. The labelling was performed for 20 min at 25° C. A total of 12.5 μL of 4× Laemmli Sample Buffer with 10% v/v β-mercaptoethanol was added to each of the samples, followed by heating at 95° C. for 10 min. From each sample, 10 μL was loaded on a 4-15% SDS-PAGE TGX gel, followed by transfer on a nitrocellulose membrane. After blocking the membrane with tris-buffered saline containing 0.1% v/v Tween-20 (TBS-T) containing 5% BSA for 1 h, the membrane was incubated with a 1:2,000 dilution of streptavidin-HRP in TBS-T for an hour in the dark. Detection of the immunoblots was performed using a BioRad ChemiDoc MP imager.

The target in assay [3] is T1, PDI. Put plainly: Jump dilution reversibility, di-eosin-GSSG assay. Type of assay: biochemical. Particulars: 50 μM, 30 min, then 100-fold dilution. On the procedure:
FIGS. 6A and 6B are plots showing % PDI activity. […] To test reversibility, the samples containing 50 μM compounds were then diluted 1:100. PDI activity was evaluated using a di-eosin-GSSG reductase assay. Data represented as mean SEM.
After 30 minutes of equilibration, the PDI-inhibitor mixture was diluted 100-fold with thiol isomerase assay buffer where the final concentration of enzyme is 0.2 μM and compounds at 500 nM or 50 μM. Di-eosin-GSSG was added to a final concentration of 300 nM and the assay was immediately recorded for 1 h.

For assay [4], the system named is thrombus formation following laser injury of cremaster arterioles. Briefly: Laser-injury thrombosis model. The format is in vivo, mice. The protocol: Laser-injury thrombosis model. Thrombus formation in response to laser injury was measured as described previously. See Grover S P, et al. J. Thromb. Haemost. 18:3078-85, 2020; Koseoglu S, et al. Arterioscler. Thromb. Vasc. Biol. 33:481-8, 2013; and Matsuura S, et al. Arterioscler. Thromb. Vasc. Biol. 40:e262-e72, 2020. Briefly, cremaster muscle arterioles were injured using a MicroPoint Laser System (Andor, Belfast, UK). Platelet and fibrin accumulation were measured by infusion of Dylight 649-labeled anti-platelet (CD42b; 0.1 μg/g body weight; Emfret Analytics) and DyLight 488-labeled anti-fibrin (clone 59D8; 0.3 μg/g) antibodies through a jugular vein catheter. Data were acquired before and after laser injury using the brightfield, 488/520 nm, and 640/670 nm channels. Images were captured for 250 seconds at 2 frames/s using a CCD camera (ORCA Flash 4.0, Hamamatsu Photonics, Japan) on an AX-70 fluorescence microscope (Olympus, Japan). Data were analyzed using Slidebook 6.0 (Intelligent Imaging Innovations). Data from 16 to 30 thrombi were used to determine the median value of the integrated fluorescence intensity to account for variability in thrombus formation under any given experimental condition. AUC was calculated for individual thrombi and normalized to injury lengths to evaluate statistical significance. Injury lengths were determined as previously described in Grover S P, et al. J. Thromb. Haemost. 18:3078-85, 2020.
The differences in platelet accumulation and fibrin formation were not secondary to differences in the extent of laser injury since injury size between control and PGHG-treated mice was indistinguishable (FIG. 10E).

For assay [5], the target named is SARS-CoV-2 M^pro (Severe acute respiratory syndrome coronavirus 2, UniProt P0DTD1). Put plainly: SARS-CoV-2 M^pro proteolytic activity. Type of assay: biochemical.
The test system of assay [6] is SARS-CoV-2. The note with it: cited from earlier work.
The mark [7] stands for this setting: 25 μg/g PGHG, intraperitoneal injection.
Where [8] appears, read: PGHG 25 mg/kg (Example 1, FIG. 1).
Where [9] appears, read: intravenous infusion, 25 μg/g PGHG.

Usually IC50 stands for the concentration that gives 50% inhibition.

Entries after “also recorded” stand apart in the source; their conditions may differ.

T1 sequence (P07237 18-508): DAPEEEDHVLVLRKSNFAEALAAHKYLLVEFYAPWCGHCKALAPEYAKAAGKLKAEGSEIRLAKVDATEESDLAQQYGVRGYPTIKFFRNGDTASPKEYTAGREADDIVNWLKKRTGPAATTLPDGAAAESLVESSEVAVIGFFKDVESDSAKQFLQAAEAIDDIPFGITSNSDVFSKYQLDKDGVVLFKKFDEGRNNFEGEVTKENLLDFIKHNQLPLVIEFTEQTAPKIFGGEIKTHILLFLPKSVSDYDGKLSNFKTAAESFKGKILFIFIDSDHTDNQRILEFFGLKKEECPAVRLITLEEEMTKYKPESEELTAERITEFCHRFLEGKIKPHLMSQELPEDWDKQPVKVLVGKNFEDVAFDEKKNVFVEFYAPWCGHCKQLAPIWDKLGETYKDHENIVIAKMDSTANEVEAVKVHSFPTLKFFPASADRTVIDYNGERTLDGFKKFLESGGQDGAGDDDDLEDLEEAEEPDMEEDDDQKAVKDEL

Turning to `O=C(O[C@@H]1[C@@H](O)[C@H](Oc2cc(O)c3c(c2)O[C@H](c2ccccc2)CC3=O)O[C@@H]2COC(=O)c3cc(O)c(O)c(O)c3-c3c(cc(O)c(O)c3O)C(=O)O[C@@H]12)c1cc(O)c(O)c(O)c1` [PGHG, pinocembrin 7-O-(3″-galloyl-4″,6″-(S)-hexahydroxydiphenoyl)-beta-D-glucose], the “inhibition of PDI (in words)” value in assay [1] is on record as “low micromolar range; also recorded: inhibit PDI”. The 50% inhibitory concentration (IC50) in assay [1] (read-out: PDI reductase activity IC50) was found to be 1500 ± 600 nM. In addition, the “effect on MPB binding to PDI” value in assay [2] was “no significant effect on MPB binding”. The “reversibility of PDI inhibition” value in assay [3] is reported as “inhibitory activity was lost following a 100-fold dilution”. In addition, in assay [4] (setting [7]), the mean fibrin fluorescence is recorded as 33.44±7.53 % of control and the mean platelet accumulation is listed as 29.56±9.08 % of control. For the same molecule, in assay [4] (setting [8]), the fibrin formation is 21±3 % of controls and the platelet accumulation is listed as 18±6 % of control levels. Also, in assay [4] (setting [9]), the “fibrin formation, fluorescence compared to controls” value stood at 21±3.7% and the “platelet accumulation, fluorescence compared to controls” value was 18±6.2%. Besides, the IC50 in assay [5] came to 6.5 µM. Further, in assay [6] (Vero Cells, read-out: Inhibition of viral replication IC50), the 50% inhibitory concentration (IC50) is 5 µM. Besides, the “inhibition of SARS-CoV-2 / infection (in words)” value in assay [6] is “inhibitors of SARS-CoV-2”.
